Measurements: PubChem BioAssay AID1845198 (Molecular Pharmacology Branch, DTP, NCI, 2023)
pIC50: −log10 of the molar value.

System: 425362-245-T-J1 tumor spheroids, viability % test/control
Test: Anticancer human tumor 425362-245-T-J1 patient-derived melanoma cell line growth inhibition
Conditions: spheroids with HUVEC and MSC; for pIC50: curve of first compound; for viability, T/C: stronger effect = lower value
Procedure, shortened: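 Complex spheroids of malignant cells with endothelial cells and mesenchymal stem cells; agents alone or combined, from near clinical Cmax (or 10 microM if unknown) down in half-log steps, 0.25% DMSO final.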

[1] = second compound 30 pM, first compound 0.0316 µM
[2] = second compound 30 pM, first compound 0.1 µM
[3] = second compound 30 pM, first compound 0.316 µM
[4] = second compound 30 pM, first compound 1 µM
[5] = second compound 30 pM, first compound 3.16 µM
[6] = second compound 30 pM, first compound 10 µM
[7] = second compound 94.9 pM, first compound 0.0316 µM
[8] = second compound 94.9 pM, first compound 0.1 µM
[9] = second compound 94.9 pM, first compound 0.316 µM
[10] = second compound 94.9 pM, first compound 1 µM
[11] = second compound 94.9 pM, first compound 3.16 µM
[12] = second compound 94.9 pM, first compound 10 µM
[13] = second compound 0.0003 µM, first compound 0.0316 µM
[14] = second compound 0.0003 µM, first compound 0.1 µM
[15] = second compound 0.0003 µM, first compound 0.316 µM
[16] = second compound 0.0003 µM, first compound 1 µM
[17] = second compound 0.0003 µM, first compound 3.16 µM
[18] = second compound 0.0003 µM, first compound 10 µM
[19] = second compound 0.000949 µM, first compound 0.0316 µM
[20] = second compound 0.000949 µM, first compound 0.1 µM
[21] = second compound 0.000949 µM, first compound 0.316 µM
[22] = second compound 0.000949 µM, first compound 1 µM
[23] = second compound 0.000949 µM, first compound 3.16 µM
[24] = second compound 0.000949 µM, first compound 10 µM
[25] = second compound 0.003 µM, first compound 0.0316 µM
[26] = second compound 0.003 µM, first compound 0.1 µM
[27] = second compound 0.003 µM, first compound 0.316 µM
[28] = second compound 0.003 µM, first compound 1 µM
[29] = second compound 0.003 µM, first compound 3.16 µM
[30] = second compound 0.003 µM, first compound 10 µM
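Further: spheroids exposed to agents for 7 days.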
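Wherever viability, T/C is given: 100% = DMSO vehicle control viability.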

Structure (SMILES) | pIC50 (second compound 30 pM) | pIC50 (second compound 94.9 pM) | pIC50 (second compound 0.0003 µM) | pIC50 (second compound 0.000949 µM) | pIC50 (second compound 0.003 µM) | viability, T/C [1] | viability, T/C [2] | viability, T/C [3] | viability, T/C [4] | viability, T/C [5] | viability, T/C [6] | viability, T/C [7] | viability, T/C [8] | viability, T/C [9] | viability, T/C [10] | viability, T/C [11] | viability, T/C [12] | viability, T/C [13] | viability, T/C [14] | viability, T/C [15] | other results
CC(C)n1c(=O)n(C)c2cnc3cc(F)c(-c4ccc(OCCCN5CCCCC5)nc4)cc3c21 + COc1cc2c(cc1O)CCNC21CSC2c3c(OC(C)=O)c(C)c4c(c3C(COC1=O)N1C(O)C3Cc5cc(C)c(OC)c(O)c5C(C21)N3C)OCO4 | > 7.50 | > 7.50 | > 7.50 | > 7.50 | > 7.50 | 14.8% | 30.2% | 13.3% | 14.8% | 11.2% | 5.34% | 12% | 9.68% | 5.43% | 6.03% | 6.79% | 4.33% | 3.13% | 2.75% | 1.61% | viability, T/C [16]: 1.81%; viability, T/C [17]: 1.68%; viability, T/C [18]: 1.23%; viability, T/C [19]: 0.2%; viability, T/C [20]: 0.2%; viability, T/C [21]: 0.19%; viability, T/C [22]: 0.63%; viability, T/C [23]: 0.35%; viability, T/C [24]: 0.15%; viability, T/C [25]: 0.18%; viability, T/C [26]: 0.19%; viability, T/C [27]: 0.17%; viability, T/C [28]: 0.12%; viability, T/C [29]: 0.12%; viability, T/C [30]: 0.23%
CC1COCCN1c1cc(-c2ccnn2C)c2ccnc(-c3ccn[nH]3)c2n1 (stereo not given) + COc1cc2c(cc1O)CCNC21CSC2c3c(OC(C)=O)c(C)c4c(c3C(COC1=O)N1C(O)C3Cc5cc(C)c(OC)c(O)c5C(C21)N3C)OCO4 | > 7.50 | > 7.50 | > 7.50 | > 7.50 | > 7.50 | 31.8% | 7.92% | 5.31% | 5.63% | 6.73% | 7.04% | 17.9% | 5% | 4.08% | 3.64% | 5.29% | 5.35% | 2.05% | 1.46% | 1.47% | viability, T/C [16]: 1.57%; viability, T/C [17]: 2.68%; viability, T/C [18]: 2.88%; viability, T/C [19]: 0.27%; viability, T/C [20]: 0.17%; viability, T/C [21]: 0.15%; viability, T/C [22]: 0.08%; viability, T/C [23]: 0.09%; viability, T/C [24]: 0.58%; viability, T/C [25]: 0.58%; viability, T/C [26]: 0.6%; viability, T/C [27]: 0.55%; viability, T/C [28]: 0.47%; viability, T/C [29]: 0.47%; viability, T/C [30]: 0.86%
COc1cc(C)[nH]c(=O)c1CN1CCc2c(Cl)cc(C(OC)C3COC3)c(Cl)c2C1=O (stereo not given) + COc1cc2c(cc1O)CCNC21CSC2c3c(OC(C)=O)c(C)c4c(c3C(COC1=O)N1C(O)C3Cc5cc(C)c(OC)c(O)c5C(C21)N3C)OCO4 | < 5.00 | < 5.00 | 6.44 | > 7.50 | > 7.50 | 104% | 104% | 100% | 99.2% | 86.5% | 92.5% | 98.4% | 93.9% | 98.7% | 95.1% | 87% | 74.2% | 68% | 48.1% | 60.5% | viability, T/C [16]: 40.5%; viability, T/C [17]: 30.2%; viability, T/C [18]: 23.1%; viability, T/C [19]: 0.53%; viability, T/C [20]: 0.46%; viability, T/C [21]: 1.6%; viability, T/C [22]: 0.35%; viability, T/C [23]: 0.31%; viability, T/C [24]: 0.31%; viability, T/C [25]: 0.35%; viability, T/C [26]: 0.38%; viability, T/C [27]: 0.36%; viability, T/C [28]: 0.31%; viability, T/C [29]: 0.29%; viability, T/C [30]: 0.35%
COc1ccc([C@@H](O)c2cc(-c3ncnc4cc(N5CCOCC5)ccc34)c(F)cc2Cl)nn1 + COc1cc2c(cc1O)CCNC21CSC2c3c(OC(C)=O)c(C)c4c(c3C(COC1=O)N1C(O)C3Cc5cc(C)c(OC)c(O)c5C(C21)N3C)OCO4 | 5.83 | 6.05 | > 7.50 | > 7.50 | > 7.50 | 94.5% | 108% | 93.6% | 58.5% | 32.7% | 15.9% | 91% | 91.2% | 84.3% | 44.4% | 26.5% | 14.2% | 49.2% | 42.5% | 36.6% | viability, T/C [16]: 3.35%; viability, T/C [17]: 0.22%; viability, T/C [18]: 0.19%; viability, T/C [19]: 0.4%; viability, T/C [20]: 0.23%; viability, T/C [21]: 0.14%; viability, T/C [22]: 0.08%; viability, T/C [23]: 0.05%; viability, T/C [24]: 0.22%; viability, T/C [25]: 0.28%; viability, T/C [26]: 0.35%; viability, T/C [27]: 0.35%; viability, T/C [28]: 0.33%; viability, T/C [29]: 0.3%; viability, T/C [30]: 0.39%
Cc1cc(C)c(CNC(=O)c2cc(-c3ccc(CN4CCOCC4)cc3)cc3c2cnn3C2CCCC2)c(=O)[nH]1 + COc1cc2c(cc1O)CCNC21CSC2c3c(OC(C)=O)c(C)c4c(c3C(COC1=O)N1C(O)C3Cc5cc(C)c(OC)c(O)c5C(C21)N3C)OCO4 | < 5.00 | < 5.00 | > 7.50 | > 7.50 | > 7.50 | 81.9% | 97.4% | 97.5% | 102% | 85.7% | 61.4% | 84.3% | 87.3% | 92.9% | 88.2% | 81.9% | 64.3% | 44.9% | 40% | 59.9% | viability, T/C [16]: 39.5%; viability, T/C [17]: 34.4%; viability, T/C [18]: 25.5%; viability, T/C [19]: 0.31%; viability, T/C [20]: 0.35%; viability, T/C [21]: 0.34%; viability, T/C [22]: 0.33%; viability, T/C [23]: 0.21%; viability, T/C [24]: 0.26%; viability, T/C [25]: 0.3%; viability, T/C [26]: 0.32%; viability, T/C [27]: 0.3%; viability, T/C [28]: 0.25%; viability, T/C [29]: 0.25%; viability, T/C [30]: 0.26%
[2H]c1nc(C)nc([2H])c1-c1cc(NC[C@@H](C)c2cccc3c(C(=O)NC)ccnc23)ncn1 + COc1cc2c(cc1O)CCNC21CSC2c3c(OC(C)=O)c(C)c4c(c3C(COC1=O)N1C(O)C3Cc5cc(C)c(OC)c(O)c5C(C21)N3C)OCO4 | < 5.00 | < 5.00 | 7.14 | > 7.50 | > 7.50 | 91.2% | 106% | 100% | 101% | 90.8% | 92.1% | 89.7% | 90.1% | 92.3% | 91.5% | 83.1% | 82.5% | 51% | 54.6% | 43.2% | viability, T/C [16]: 40.4%; viability, T/C [17]: 50.2%; viability, T/C [18]: 41.5%; viability, T/C [19]: 0.44%; viability, T/C [20]: 0.45%; viability, T/C [21]: 1.41%; viability, T/C [22]: 0.35%; viability, T/C [23]: 0.23%; viability, T/C [24]: 0.31%; viability, T/C [25]: 0.18%; viability, T/C [26]: 0.2%; viability, T/C [27]: 0.14%; viability, T/C [28]: 0.12%; viability, T/C [29]: 0.13%; viability, T/C [30]: 0.25%
